Literature values in patent publication US20240009133A1, “METHODS OF TREATING AUTOIMMUNE OR INFLAMMATORY CONDITIONS WITH CANNABIDIOL OR ITS DERIVATIVES/ANALOGS” (ORCOSA INC., priority 2020, published 2024).

Conditions: oral, randomized control trial in Crohn's disease

C=C(C)[C@@H]1CCC(C)=C[C@H]1c1c(O)cc(CCCCC)cc1O [CBD, cannabidiol]
efficacy: no statistical efficacy demonstrated | safety: safe
